The text below walks through data of patent US20120046362A1, “ANTIVIRAL AGENT AND CLEANSING AGENT” (priority 2009, published 2012).

One data set relates to feline calicivirus. Put plainly: Inactivation ability against infectivity of feline calicivirus (TCID50 on CRFK cells). It counts as cell-based. The note with it: for inactivation ability against the feline calicivirus, potassium versus sodium oleate soap: Example 4, 0.35 M oleate soap.
The subject of data set [1] is Influenza virus A/whistling swan/Shimane/499/83 (H5N3). Format: cell-based, avian influenza virus. Conditions: for ability to inactivate the avian influenza virus, potassium versus sodium oleate soap: Example 4, 0.35 M oleate soap tested as in Example 2; for infection dose of the avian influenza virus reduced to / ability to inactivate: Example 9, diluted to 0.0035 mol/L with purified water; for effect on the avian influenza virus (ability to inactivate): Example 10, each potassium soap diluted to 0.035 M.

Where [2] appears, read: Example 9, diluted to 0.0035 mol/L with purified water.
Where [3] appears, read: Example 8, sample No. 19 versus surface-active agents other than soap (Table 4, 10.32 %).

Where two headings read alike, the source gives them in different places.

As for `CCCCCCCC/C=C\CCCCCCCC(=O)[O-].[Na+]` [sodium oleate soap, sodium oleate], the “inactivation ability against the feline calicivirus, potassium versus sodium oleate soap” value in the data set on feline calicivirus is “no difference”. In addition, the “ability to inactivate the avian influenza virus, potassium versus sodium oleate soap” value in data set [1] is reported as “no difference”.
On to `CCCCCCCC/C=C\CCCCCCCC(=O)[O-].[K+]` [potassium oleate soap, potassium oleate], for which the “inactivation ability against the feline calicivirus, potassium versus sodium oleate soap” value in the data set with feline calicivirus is recorded as “no difference”. Moreover, in the data set on feline calicivirus (setting [2]), the “infection dose of the feline calicivirus reduced to / ability to inactivate” value is “excellent antiviral activity”. Further, in data set [1], the “ability to inactivate the avian influenza virus, potassium versus sodium oleate soap” value is listed as “no difference”; the “infection dose of the avian influenza virus reduced to / ability to inactivate” value is “excellent antiviral activity”; the “effect on the avian influenza virus (ability to inactivate)” value (“effect on the avian influenza virus” for short) was “excellent”.
Turning to `CCCCCCCC/C=C\CCCCCCCC(=O)N(C)CC(=O)O` [oleoyl sarcosine], in the data set with feline calicivirus, the “infection dose of the feline calicivirus reduced to / ability to inactivate” value is given as “could not be reduced”. Also, the “infection dose of the avian influenza virus reduced to / ability to inactivate” value in data set [1] was “about one-thousandth”.
For the compound Polyoxyethylene sorbitan monooleate, in the data set on feline calicivirus (setting [2]), the “infection dose of the feline calicivirus reduced to / ability to inactivate” value is “no ability to inactivate”. Further, the “infection dose of the avian influenza virus reduced to / ability to inactivate” value in data set [1] was “no ability to inactivate”.
Turning to `CCCCCCCC/C=C\CCCCCCCCOS(=O)(=O)[O-].[Na+]` [sodium oleyl sulfate], the “infection dose of the feline calicivirus reduced to / ability to inactivate” value in the data set with feline calicivirus was “one-tenth or less”. Also, the “infection dose of the avian influenza virus reduced to / ability to inactivate” value in data set [1] is “one-tenth or less”.
On to “Sodium polyoxyethylene alkyl ether sulfate [compound 37]”, for which, in the data set on feline calicivirus (setting [3]), the “virus inactivation ability / antiviral activity (feline calicivirus)” value is recorded as “low antiviral activity”. The cytotoxicity result with MDCK (+) cells and with CRFK cells was “high cytotoxicity” throughout. In addition, in data set [1] (setting [3]), the “virus inactivation ability / antiviral activity (avian influenza virus)” value was “low antiviral activity”.
Turning to `CCCCC/C=C\C/C=C\CCCCCCCC(=O)[O-].[K+]` [C18:2 (linoleate) soap], the “effect on the avian influenza virus” value in data set [1] is listed as “excellent”.
As to `CCC=CCC=CCC=CCCCCCCCC(=O)[O-].[K+]` [C18:3 (linolenate) soap], the “effect on the avian influenza virus” value in data set [1] is listed as “weak”.
